Experimental data taken from ChEMBL document CHEMBL5113380, “Functionalized quinoxalinones as privileged structures with broad-ranging pharmacological activities” (Eur J Med Chem, 2022).
Converted amounts (≈) assume the structure as drawn.

Legend:
[1] = tested on: Candida albicans; experiment: Antifungal activity against Candida albicans; format: functional
[2] = tested on: Escherichia coli; experiment: Antibacterial activity against Escherichia coli; format: functional
[3] = tested on: Bacillus cereus; experiment: Antibacterial activity against Bacillus cereus; format: functional
[4] = tested on: Pseudomonas aeruginosa; experiment: Antibacterial activity against Pseudomonas aeruginosa; format: functional
[5] = tested on: Aspergillus niger; experiment: Antifungal activity against Aspergillus niger; format: functional
[6] = tested on: Staphylococcus aureus; experiment: Antibacterial activity against Staphylococcus aureus; format: functional
[7] = tested on: Trichophyton mentagrophytes; experiment: Antimicrobial activity against Trichophyton mentagrophytes; format: functional
[8] = target: Glutamate receptor ionotropic, kainate 1 (Homo sapiens, UniProt P39086); experiment: Binding affinity to GluK1 receptor (unknown origin)
[9] = target: Glutamate receptor 2 (Homo sapiens, UniProt P42262); experiment: Binding affinity to GluA2 receptor (unknown origin)
[10] = Inhibition of ALR2 (unknown origin); parameters: species or system Homo sapiens
[11] = Inhibition of ALR1 (unknown origin) relative to control; parameters: concentration or dose not given beside the values; settings: Homo sapiens; concentration not given here
[12] = target: Glutamate [NMDA] receptor; experiment: Displacement of [3H]DCKA from NMDA receptor (unknown origin); format: protein-complex assay, Homo sapiens
[13] = target: Glutamate receptor ionotropic, kainate 2 (Homo sapiens, UniProt Q13002); experiment: Binding affinity to GluK2 receptor (unknown origin)
[14] = target: T1, Glutamate receptor ionotropic AMPA (Homo sapiens, UniProt P42261+P42262+P42263+P48058); experiment: Displacement of [3H]AMPA from AMPA receptor (unknown origin); format: protein-complex assay
[15] = target: T1, Glutamate receptor ionotropic AMPA; experiment: Displacement of [3H]kainic acid from AMPA receptor (unknown origin); format: protein-complex assay
[16] = Antioxidant activity assessed as DPPH radical scavenging activity; format: functional; settings: read-out: IC50
[17] = tested on: Klebsiella pneumoniae; experiment: Antibacterial activity against Klebsiella pneumoniae; format: functional
[18] = target: T1, Glutamate receptor ionotropic AMPA; experiment: Binding affinity to AMPA receptor (unknown origin); format: protein-complex assay
[19] = target: Glutamate [NMDA] receptor; experiment: Binding affinity to NMDA receptor (unknown origin); format: protein-complex assay, Homo sapiens
[20] = Binding affinity to KA receptor (unknown origin); parameters: species or system Homo sapiens
[21] = species on record: Homo sapiens; experiment: Inhibition of human TRK relative to control; parameters: concentration or dose not given beside the values; settings: concentration not given here
[22] = Displacement of [3H]glycine from AMPA receptor (unknown origin); format: protein-complex assay, Homo sapiens
[23] = tested on: HeLa; experiment: Antiproliferative activity against human HeLa cells; format: functional, cell-based
[24] = tested on: MCF7; experiment: Antiproliferative activity against human MCF7 cells; format: functional, cell-based

Chain of Glutamate receptor 2 (P42262 whole entry): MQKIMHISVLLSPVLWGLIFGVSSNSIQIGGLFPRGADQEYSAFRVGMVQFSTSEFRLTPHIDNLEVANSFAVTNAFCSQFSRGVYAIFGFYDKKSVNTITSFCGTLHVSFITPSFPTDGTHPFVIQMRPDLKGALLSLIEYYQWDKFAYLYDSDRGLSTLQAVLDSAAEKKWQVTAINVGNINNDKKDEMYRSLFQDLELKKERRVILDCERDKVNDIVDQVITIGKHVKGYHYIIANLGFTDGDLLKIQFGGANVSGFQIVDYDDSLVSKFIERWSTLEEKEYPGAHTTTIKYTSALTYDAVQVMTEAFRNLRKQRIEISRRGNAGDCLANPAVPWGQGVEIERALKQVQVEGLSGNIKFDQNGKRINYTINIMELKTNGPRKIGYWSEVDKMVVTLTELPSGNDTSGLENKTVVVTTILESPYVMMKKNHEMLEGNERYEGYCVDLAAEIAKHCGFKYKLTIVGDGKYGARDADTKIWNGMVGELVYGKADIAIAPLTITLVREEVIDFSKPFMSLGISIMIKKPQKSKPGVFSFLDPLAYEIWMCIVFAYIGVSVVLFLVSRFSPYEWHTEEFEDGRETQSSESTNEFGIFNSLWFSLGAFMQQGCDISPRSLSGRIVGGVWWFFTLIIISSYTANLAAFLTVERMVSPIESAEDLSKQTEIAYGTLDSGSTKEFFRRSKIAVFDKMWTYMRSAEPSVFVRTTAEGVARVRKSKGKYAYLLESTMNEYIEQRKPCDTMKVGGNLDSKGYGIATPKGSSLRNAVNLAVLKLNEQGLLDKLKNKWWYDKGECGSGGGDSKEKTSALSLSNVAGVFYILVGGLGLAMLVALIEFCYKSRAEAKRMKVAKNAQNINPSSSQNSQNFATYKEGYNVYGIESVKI
Chain of Glutamate receptor ionotropic, kainate 2 (Q13002 whole entry): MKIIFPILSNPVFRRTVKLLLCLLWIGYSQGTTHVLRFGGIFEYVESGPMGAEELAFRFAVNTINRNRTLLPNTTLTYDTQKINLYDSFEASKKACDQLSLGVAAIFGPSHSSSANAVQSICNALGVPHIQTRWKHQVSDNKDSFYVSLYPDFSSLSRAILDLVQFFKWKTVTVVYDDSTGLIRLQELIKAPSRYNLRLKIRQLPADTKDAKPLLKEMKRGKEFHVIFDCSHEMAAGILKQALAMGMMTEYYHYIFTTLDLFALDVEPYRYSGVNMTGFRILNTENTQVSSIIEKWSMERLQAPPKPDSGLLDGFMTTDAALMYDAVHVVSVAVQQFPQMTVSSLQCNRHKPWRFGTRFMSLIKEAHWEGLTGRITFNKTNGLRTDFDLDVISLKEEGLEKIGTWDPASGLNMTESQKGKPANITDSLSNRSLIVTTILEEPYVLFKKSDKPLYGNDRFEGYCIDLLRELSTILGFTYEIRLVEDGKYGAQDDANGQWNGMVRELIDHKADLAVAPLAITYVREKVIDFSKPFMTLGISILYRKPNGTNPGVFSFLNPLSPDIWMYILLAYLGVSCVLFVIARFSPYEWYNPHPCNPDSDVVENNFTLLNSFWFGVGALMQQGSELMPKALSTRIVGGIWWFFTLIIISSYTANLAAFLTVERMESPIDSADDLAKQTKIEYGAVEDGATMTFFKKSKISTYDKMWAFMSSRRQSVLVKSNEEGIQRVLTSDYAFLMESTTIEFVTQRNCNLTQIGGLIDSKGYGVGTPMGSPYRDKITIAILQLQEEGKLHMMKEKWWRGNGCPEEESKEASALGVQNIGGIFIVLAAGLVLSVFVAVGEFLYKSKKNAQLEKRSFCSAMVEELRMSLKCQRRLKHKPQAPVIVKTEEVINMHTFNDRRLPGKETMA
Chain of Glutamate receptor ionotropic, kainate 1 (P39086 whole entry): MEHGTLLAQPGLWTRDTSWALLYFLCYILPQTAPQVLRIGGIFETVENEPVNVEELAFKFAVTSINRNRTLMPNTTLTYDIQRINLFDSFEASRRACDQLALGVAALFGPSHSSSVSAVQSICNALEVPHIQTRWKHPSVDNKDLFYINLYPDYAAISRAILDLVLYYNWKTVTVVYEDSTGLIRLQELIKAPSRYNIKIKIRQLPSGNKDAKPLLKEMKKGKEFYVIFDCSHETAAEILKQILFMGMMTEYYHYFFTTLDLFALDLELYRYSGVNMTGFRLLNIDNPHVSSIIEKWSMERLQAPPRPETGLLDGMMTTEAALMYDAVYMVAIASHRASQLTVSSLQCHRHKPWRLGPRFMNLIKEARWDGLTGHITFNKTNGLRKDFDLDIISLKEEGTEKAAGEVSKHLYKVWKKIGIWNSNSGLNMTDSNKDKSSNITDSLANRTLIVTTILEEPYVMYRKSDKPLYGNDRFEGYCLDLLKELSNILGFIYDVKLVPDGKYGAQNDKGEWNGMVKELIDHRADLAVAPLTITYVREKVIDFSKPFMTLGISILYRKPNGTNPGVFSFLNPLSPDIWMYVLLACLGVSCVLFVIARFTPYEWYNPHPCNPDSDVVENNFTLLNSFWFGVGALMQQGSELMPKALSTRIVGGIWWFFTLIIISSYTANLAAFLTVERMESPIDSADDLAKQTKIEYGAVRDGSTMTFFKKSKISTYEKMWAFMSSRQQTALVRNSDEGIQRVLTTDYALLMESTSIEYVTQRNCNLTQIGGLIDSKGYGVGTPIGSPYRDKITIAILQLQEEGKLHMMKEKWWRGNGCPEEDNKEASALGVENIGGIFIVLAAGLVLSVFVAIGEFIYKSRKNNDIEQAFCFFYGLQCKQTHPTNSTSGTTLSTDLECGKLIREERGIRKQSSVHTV

Compound `CCCCCCCCC[n+]1cccc(-c2nc(-c3ccccc3)c3c(=O)n(CCCCCC)c4ccccc4n23)c1.[I-]` has an MBC [1] of 500 µg/mL, an MIC [1] of 500 µg/mL and an MBC [2] greater than 500 µg/mL. The MIC [2] was greater than 500 µg/mL, the MBC [3] was 500 µg/mL and the MIC [3] was 0.78 µg/mL. It also gave an MBC [4] greater than 500 µg/mL, an MIC [4] greater than 500 µg/mL and an MBC [5] greater than 500 µg/mL. The MIC [5] was greater than 500 µg/mL, the MBC [6] was 5 µg/mL and the MIC [6] was 0.78 µg/mL. For the same compound, the MBC [7] was greater than 500 µg/mL and the MIC [7] was greater than 500 µg/mL.

`CCOC(=O)c1nc2cc(F)c(N3CCOCC3)cc2[nH]c1=O` showed an MIC [4] of 250 µg/mL (≈ 778 µM).

`O=C(Nn1c(=O)c(=O)[nH]c2cc(C#CCCO)ccc21)c1ccccc1` gave a Ki [8] of 12.7 µM and a Ki [9] greater than 100 µM.

Work on `O=C(O)Cn1c(=O)c(Oc2ccc(Br)cc2)nc2cc(Br)ccc21` yielded an IC50 [10] of 0.0163 µM and an inhibition [11] of 25.6%.

`O=C(O)C[C@@H]1CCc2cc(Br)cc3[nH]c(=O)c(=O)n1c23` showed a Ki [12] of 0.0023 µM.

In the case of `N[C@@H](Cc1ccc2[nH]c(=O)c(=O)[nH]c2c1)C(=O)O`, the Ki [13] is reported as 136 µM, the IC50 [14] is reported as 203 µM and the Ki [8] is reported as greater than 100 µM. It also gave a Ki [9] greater than 100 µM and an IC50 [15] greater than 300 µM.

In the case of `O=C(O)Cn1c(=O)c(CCc2ccccc2)nc2ccccc21`, the IC50 [10] is reported as 0.143 µM and the inhibition [11] is reported as 22%.

With `C[C@H]1Cc2cc(Cl)cc3[nH]c(=O)c(=O)n(c23)C1CC(=O)O` (some centres undefined) the Ki [12] was 0.0044 µM.

With `CSCCc1nc2ccc(N3C(=O)CSC3c3ccc([N+](=O)[O-])cc3)cc2[nH]c1=O` (centres undefined) the MBC [1] was 353 µM, the IC50 [16] was 28.9 µM and the MBC [17] was 706 µM (≈ 313 µg/mL).

Work on `O=C(O)c1cc(-c2ccc3[nH]c(=O)c(=O)[nH]c3c2)ccc1Cl` yielded a Ki [13] of 33 µM, an IC50 [18] of 24 µM and a Ki [19] greater than 100 µM. For the same compound, the Ki [8] was 1.2 µM, the Ki [9] was greater than 100 µM and the IC50 [20] was 57 µM.

Work on `Cc1nn(-c2ccccc2)c(N2CCN(S(=O)(=O)c3ccccc3)CC2)c1/C=N/Nc1nc2ccccc2nc1O` yielded an inhibition [21] of 12%.

Work on `O=c1[nH]c2ccc(/C=C/CP(=O)(O)O)cc2[nH]c1=O` yielded a Ki [13] greater than 100 µM, an IC50 [18] greater than 100 µM and a Ki [19] of 69 µM. The Ki [8] was greater than 100 µM and the IC50 [20] was greater than 100 µM.

`O=C1CSC(c2ccc([N+](=O)[O-])cc2)N1c1ccc2nc(Cc3ccc(O)cc3)c(=O)[nH]c2c1` (centres undefined) gave an IC50 [16] of 10.5 µM.

Work on `O=C(O)CNS(=O)(=O)c1ccc2nc(O)c(O)nc2c1` yielded a Ki [13] greater than 100 µM, an IC50 [18] greater than 100 µM and a Ki [19] of 53 µM. The Ki [8] was greater than 100 µM and the IC50 [20] was greater than 100 µM.

`CCCCCCCCCn1c(=O)c2c(-c3ccccc3)nc(-c3ccc[n+](CCCCCCCCC)c3)n2c2ccccc21.[Br-]` showed an MBC [1] of 500 µg/mL, an MIC [1] of 50 µg/mL and an MBC [2] greater than 500 µg/mL. For the same compound, the MIC [2] was greater than 500 µg/mL, the MBC [3] was 500 µg/mL and the MIC [3] was 6.3 µg/mL. It also gave an MBC [4] greater than 500 µg/mL, an MIC [4] greater than 500 µg/mL and an MBC [5] greater than 500 µg/mL. It also gave an MIC [5] greater than 500 µg/mL, an MBC [6] of 50 µg/mL and an MIC [6] of 1.5 µg/mL. The MBC [7] was greater than 500 µg/mL and the MIC [7] was 500 µg/mL.

For `O=c1[nH]c2ccc(CCP(=O)(O)O)cc2[nH]c1=O`, the Ki [13] was greater than 100 µM, the IC50 [18] was greater than 100 µM and the Ki [19] was 56 µM. It also gave a Ki [8] greater than 100 µM and an IC50 [20] greater than 100 µM.

With `O=C(O)c1nc2c(=O)[nH]c3cc(Cl)cc(-n4cnnc4)c3n2n1` the Ki [22] was 2.3 µM, the Ki [14] was 0.4 µM and the IC50 [15] was 37 µM.

`O=c1[nH]c2ccc(CCCP(=O)(O)O)cc2[nH]c1=O` gave a Ki [13] greater than 100 µM, an IC50 [18] greater than 100 µM and a Ki [19] of 55 µM. It also gave a Ki [8] greater than 100 µM and an IC50 [20] greater than 100 µM.

In the case of `CCOC(=O)c1nc2ccc(C(F)(F)F)cc2[nH]c1=O`, the MIC [2] is reported as 125 µg/mL (≈ 437 µM).

Work on `Cc1ccc(C(=O)O)cc1-c1ccc2[nH]c(=O)c(=O)[nH]c2c1` yielded a Ki [13] greater than 100 µM, an IC50 [18] of 30 µM and a Ki [19] greater than 100 µM. The Ki [8] was 1.3 µM, the Ki [9] was greater than 100 µM and the IC50 [20] was greater than 100 µM.

`O=C(O)c1ccn(-c2cc3c(cc2[N+](=O)[O-])nc(O)c2nc(C(=O)O)nn23)c1` gave a Ki [14] of 0.019 µM.

`CCc1nc2ccc(C(F)(F)F)cc2[nH]c1=O` gave an MIC [4] of 125 µg/mL (≈ 516 µM).

`NC(Cn1c(=O)c(=O)[nH]c2ccccc21)C(=O)O` (centres undefined) gave an IC50 [14] of 0.69 µM.

With `CC[C@H]1Cc2cc(Br)cc3[nH]c(=O)c(=O)n(c23)C1CC(=O)O` (some centres undefined) the Ki [12] was 0.0014 µM.

Work on `CCCCCCn1c(=O)c2c(-c3ccccc3)nc(-c3ccc[n+](Cc4ccccc4)c3)n2c2ccccc21.[Cl-]` yielded an MBC [1] of 500 µg/mL, an MIC [1] of 7.8 µg/mL and an MBC [2] greater than 500 µg/mL. It also gave an MIC [2] greater than 500 µg/mL, an MBC [3] greater than 500 µg/mL and an MIC [3] of 6.3 µg/mL. It also gave an MBC [4] greater than 500 µg/mL, an MIC [4] greater than 500 µg/mL and an MBC [5] greater than 500 µg/mL. For the same compound, the MIC [5] was greater than 500 µg/mL, the MBC [6] was 50 µg/mL and the MIC [6] was 0.97 µg/mL. For the same compound, the MBC [7] was greater than 500 µg/mL and the MIC [7] was 500 µg/mL.

With `CCOC(=O)CN(C)Cc1c(CC)c([N+](=O)[O-])cc2nc(O)c(O)nc12` the IC50 [22] was greater than 10 µM and the IC50 [14] was 1.59 µM.

Work on `CCc1c([N+](=O)[O-])cc2nc(O)c(O)nc2c1CN(C)CC(=O)O` yielded an IC50 [22] of 0.47 µM and an IC50 [14] of 0.14 µM.

Compound `COc1ccc(/C(=C(\C#N)C(=O)NN)n2c(=O)c(O)nc3ccccc32)cc1` has an IC50 [23] of 8.92 µM and an IC50 [24] of 2.61 µM.

With `CCOC(=O)c1nc2cc(F)ccc2[nH]c1=O` the MIC [4] was 250 µg/mL (≈ 1060 µM).

With `O=C(O)c1nc2ccc(Cl)cc2[nH]c1=O` the MIC [2] was 125 µg/mL (≈ 557 µM).
